Publication PMC9693073, “Two Subgroups within the GH43_36 α-L-Arabinofuranosidase Subfamily Hydrolyze Arabinosyl from Either Mono-or Disubstituted Xylosyl Units in Wheat Arabinoxylan” (International Journal of Molecular Sciences, 2022)

Molecular target: T1, PoABF62 (Penicillium oxalicum, UniProt A0A2R4KZP3)
T1 construct: heterologously produced (fungal host), purified, supplied by Novozymes
Assay: HPAEC-PAD of hydrolysis products
Format: biochemical
Conditions: 10 mM ammonium acetate pH 5.0, 40 °C, 24 h, 100 μg/mL substrate

T1 sequence (A0A2R4KZP3 31-331): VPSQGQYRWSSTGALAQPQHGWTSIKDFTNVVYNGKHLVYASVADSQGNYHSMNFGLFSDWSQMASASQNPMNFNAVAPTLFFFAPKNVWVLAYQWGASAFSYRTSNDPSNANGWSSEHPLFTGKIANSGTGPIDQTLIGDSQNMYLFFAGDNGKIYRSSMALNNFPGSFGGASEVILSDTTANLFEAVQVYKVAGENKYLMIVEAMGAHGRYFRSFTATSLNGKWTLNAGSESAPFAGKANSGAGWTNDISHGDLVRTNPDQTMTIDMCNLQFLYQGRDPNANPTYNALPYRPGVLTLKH

SMILES | HPAEC-PAD of hydrolysis products | HPAEC-PAD of hydrolysis products (XA2XX/XA3XX mixture)
OC[C@@H]1O[C@@H](O[C@H]2[C@H](O[C@@H]3CO[C@@H](O[C@@H]4COC(O)[C@H](O)[C@H]4O)[C@H](O)[C@H]3O)OC[C@@H](O)[C@@H]2O)[C@H](O)[C@H]1O (stereo partly drawn) [A2XX, 2-α-L-arabinofuranosyl-xylotriose] | PoABF62 and MgABF51 were highly active on all monosubstituted AXOS | –
OC[C@@H]1O[C@@H](O[C@@H]2[C@@H](O)[C@H](O[C@@H]3CO[C@@H](O[C@@H]4COC(O)[C@H](O)[C@H]4O)[C@H](O)[C@H]3O)OC[C@H]2O[C@@H]2OC[C@@H](O)[C@H](O)[C@H]2O)[C@H](O)[C@H]1O (stereo partly drawn) [XA3XX, 3-α-L-arabinofuranosyl-xylotetraose] | – | PoABF62 and MgABF51 were highly active on all monosubstituted AXOS
